Our source for the T/C values is PubChem BioAssay AID330 (DTP/NCI, 2004).

Values joined by “and” are separate entries in the source; they are usually repeats but may differ in a detail not shown here. Equal values may be shown once. Toxic doses and inconclusive results are not listed.

This assay deals with P388 leukemia ip, CD2F1 mice, survival T/C. Kind of assay: NCI In Vivo Anticancer Drug Screen. Data for tumor model P388 Leukemia (intraperitoneal) in CD2F1 (CDF1) mice. The settings on record: endpoint: median survival time, higher = longer survival. The procedure, abridged: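 Mice carrying the transplanted tumor received test compound or vehicle. Survival was recorded in each group, and the value is the treated-group measurement divided by that of the vehicle-treated control group.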

Setting [1] is: dose: 50.0 mg/kg/injection, schedule: Q01DX005 (ip), vehicle: Klucel (hydroxypropylcellulose) (HPC).
[2] abbreviates: dose: 100.0 mg/kg/injection, schedule: Q01DX005 (ip), vehicle: Klucel (hydroxypropylcellulose) (HPC).
Setting [3] is: dose: 200.0 mg/kg/injection, schedule: Q01DX005 (ip), vehicle: Klucel (hydroxypropylcellulose) (HPC).
Setting [4] is: dose: 50.0 mg/kg/injection, schedule: Q01DX009 (ip), vehicle: saline with Tween-80.
Where [5] appears, read: dose: 100.0 mg/kg/injection, schedule: Q01DX009 (ip), vehicle: saline with Tween-80.
[6] abbreviates: dose: 200.0 mg/kg/injection, schedule: Q01DX009 (ip), vehicle: saline with Tween-80.
The mark [7] stands for this setting: dose: 50.0 mg/kg/injection, schedule: Q01DX005 (ip), vehicle: saline with Tween-80.
Where [8] appears, read: dose: 100.0 mg/kg/injection, schedule: Q01DX005 (ip), vehicle: saline with Tween-80.
The mark [9] stands for this setting: dose: 200.0 mg/kg/injection, schedule: Q01DX005 (ip), vehicle: saline with Tween-80.
Setting [10] is: dose: 400.0 mg/kg/injection, schedule: Q01DX009 (ip), vehicle: saline with Tween-80.
The mark [11] stands for this setting: dose: 25.0 mg/kg/injection, schedule: Q01DX009 (ip), vehicle: saline with Tween-80.
Where [12] appears, read: dose: 60.0 mg/kg/injection, schedule: Q01DX005 (ip), vehicle: Klucel (hydroxypropylcellulose) (HPC).
Where [13] appears, read: dose: 120.0 mg/kg/injection, schedule: Q01DX005 (ip), vehicle: Klucel (hydroxypropylcellulose) (HPC).

On to `COc1cccc2c1C(=O)c1c(O)c3c(c(O)c1C2=O)CC(O)(C(=O)CO)CC3OC1CC(N)C(O)C(C)O1` (configuration not stated) (tested in a mixture with another compound), for which the T/C (dose: 6.25 mg/kg/injection, schedule: Q01DX009 (ip), vehicle: other) was 115 % of control and the T/C (dose: 25.0 mg/kg/injection, schedule: Q01DX009 (ip), vehicle: other) was 89 % of control.

As to `COc1cc(N(CCCl)CCCl)ccc1/C=N\NC(=O)c1cccnc1`, the T/C reads like this: (dose: 25.0 mg/kg/injection, schedule: Q01DX007 (ip), vehicle: Klucel (hydroxypropylcellulose) (HPC)) 95 % of control; (dose: 50.0 mg/kg/injection, schedule: Q01DX007 (ip), vehicle: Klucel (hydroxypropylcellulose) (HPC)) 108 % of control; (dose: 100.0 mg/kg/injection, schedule: Q01DX007 (ip), vehicle: Klucel (hydroxypropylcellulose) (HPC)) 100 % of control; (dose: 200.0 mg/kg/injection, schedule: Q01DX007 (ip), vehicle: Klucel (hydroxypropylcellulose) (HPC)) 101 % of control.

Regarding `NC(=O)C(Cl)Cl`, the T/C was 108 % of control (dose: 100.0 mg/kg/injection, schedule: Q04DX002 (ip), vehicle: saline); 100 % of control (dose: 200.0 mg/kg/injection, schedule: Q04DX002 (ip), vehicle: saline); 100 % of control (dose: 400.0 mg/kg/injection, schedule: Q04DX002 (ip), vehicle: saline).

On to `O=C1CC[C@@H]2N1CC2(O)c1ccccc1` (mixture of isomers), for which the T/C under setting [1] was 96 % of control, the T/C under setting [2] was 93 % of control and the T/C under setting [3] is 93 % of control.

For the compound `COc1ccc([N+](=O)[O-])cc1NC(=O)N(C)Cc1ccco1`, the T/C is 103 % of control under setting [4], 109 % of control under setting [5] and 106 % of control under setting [6].

With `NC(=O)N=Nc1ccc(Br)cc1`, the T/C runs as follows: under setting [7], 102 % of control; under setting [8], 102 % of control; under setting [9], 93 % of control.

Turning to `O=C(O)CCNC1=CC(=O)c2ccccc2C1=O`, the T/C runs as follows: (dose: 50.0 mg/kg/injection, schedule: Q01DX009 (ip), vehicle: Klucel (hydroxypropylcellulose) (HPC)) 102 % of control; (dose: 100.0 mg/kg/injection, schedule: Q01DX009 (ip), vehicle: Klucel (hydroxypropylcellulose) (HPC)) 110 % of control.

For `O=C1C=CC(Nc2cc(Cl)ccc2Cl)C1Nc1cc(Cl)ccc1Cl` (configuration not stated), the T/C reads like this: (dose: 1.88 mg/kg/injection, schedule: Q01DX005 (ip), vehicle: saline with Tween-80) 99 % of control; (dose: 3.75 mg/kg/injection, schedule: Q01DX005 (ip), vehicle: saline with Tween-80) 97 % of control; (dose: 7.5 mg/kg/injection, schedule: Q01DX005 (ip), vehicle: saline with Tween-80) 87 % of control and 93 % of control; (dose: 240.0 mg/kg/injection, schedule: Q01DX005 (ip), vehicle: saline with Tween-80) 86 % of control and 89 % of control.

As for `COc1ccc(-c2cc(=O)c3ccc4c(O)cccc4c3o2)cc1`, the T/C by setting is: under setting [4], 94 % of control; under setting [5], 100 % of control; under setting [6], 97 % of control; under setting [10], 90 % of control.

For the compound `Cn1cnc([N+](=O)[O-])c1S(=O)(=O)NCN1CCOCC1`, the T/C reads like this: (dose: 6.25 mg/kg/injection, schedule: Q01DX009 (ip), vehicle: Klucel (hydroxypropylcellulose) (HPC)) 116 % of control; (dose: 12.5 mg/kg/injection, schedule: Q01DX009 (ip), vehicle: Klucel (hydroxypropylcellulose) (HPC)) 119 % of control.

For `CC(=O)Oc1[nH]c(=O)c2cccc3c2c1CCC3`, the T/C was 102 % of control under setting [11]; 101 % of control and 102 % of control under setting [4]; 108 % of control and 112 % of control under setting [5].

In the case of `C=CCSc1n[nH]c(-c2cccs2)n1`, the T/C is, setting by setting: (dose: 30.0 mg/kg/injection, schedule: Q01DX005 (ip), vehicle: Klucel (hydroxypropylcellulose) (HPC)) 104 % of control; under setting [12], 109 % of control; under setting [13], 109 % of control; (dose: 240.0 mg/kg/injection, schedule: Q01DX005 (ip), vehicle: Klucel (hydroxypropylcellulose) (HPC)) 109 % of control.

Regarding `CCOc1nc(=O)[nH]c2c1CCCC2`, the T/C is, setting by setting: under setting [12], 98 % of control; under setting [13], 98 % of control.

As to `S=c1[nH]nc2nc3c4ccccc4c4ccccc4c3nn12`, the T/C is 95 % of control (dose: 50.0 mg/kg/injection, schedule: Q04DX003 (ip), vehicle: saline); 95 % of control (dose: 100.0 mg/kg/injection, schedule: Q04DX003 (ip), vehicle: saline); 93 % of control (dose: 200.0 mg/kg/injection, schedule: Q04DX003 (ip), vehicle: saline).

As to `CCC(CC)OCCN1CCN(CCCN2c3ccccc3Sc3ccc(C(F)(F)F)cc32)CC1`, the T/C (dose: 0.75 mg/kg/injection, schedule: Q01DX009 (ip), vehicle: saline with Tween-80) is 110 % of control; the T/C (dose: 1.5 mg/kg/injection, schedule: Q01DX009 (ip), vehicle: saline with Tween-80) was 94 % of control; the T/C (dose: 2.5 mg/kg/injection, schedule: Q04DX003 (ip), vehicle: saline) is 110 % of control and 93 % of control; the T/C (dose: 3.0 mg/kg/injection, schedule: Q01DX009 (ip), vehicle: saline with Tween-80) is 99 % of control; the T/C (dose: 5.0 mg/kg/injection, schedule: Q04DX003 (ip), vehicle: saline) is 101 % of control and 97 % of control; the T/C (dose: 6.0 mg/kg/injection, schedule: Q01DX009 (ip), vehicle: saline with Tween-80) is 100 % of control. The T/C (dose: 10.0 mg/kg/injection, schedule: Q04DX003 (ip), vehicle: saline with Tween-80) is 99 % of control and 122 % of control; the T/C (dose: 10.0 mg/kg/injection, schedule: Q04DX003 (ip), vehicle: saline) was 109 % of control and 96 % of control; the T/C (dose: 12.0 mg/kg/injection, schedule: Q01DX009 (ip), vehicle: saline with Tween-80) is 110 % of control; the T/C (dose: 20.0 mg/kg/injection, schedule: Q04DX003 (ip), vehicle: saline with Tween-80) was 109 % of control and 119 % of control; the T/C (dose: 20.0 mg/kg/injection, schedule: Q04DX003 (ip), vehicle: saline) was 113 % of control and 98 % of control.

Consider `O=C1CSC=C(c2ccccc2)O1`, for which the T/C runs as follows: (dose: 12.5 mg/kg/injection, schedule: Q01DX009 (ip), vehicle: saline with Tween-80) 108 % of control; under setting [11], 110 % of control; under setting [4], 109 % of control; under setting [5], 104 % of control.

Consider `CC(=O)N1CCCN(C)/C1=N/[N+](=O)[O-]`, for which the T/C (dose: 60.0 mg/kg/injection, schedule: Q01DX005 (ip), vehicle: saline) is 103 % of control; the T/C (dose: 120.0 mg/kg/injection, schedule: Q01DX005 (ip), vehicle: saline) is 100 % of control; the T/C (dose: 240.0 mg/kg/injection, schedule: Q01DX005 (ip), vehicle: saline) is 108 % of control.

For the compound `CN1CCC2(CC1)OCCO2`, the T/C was 100 % of control (dose: 25.0 mg/kg/injection, schedule: Q01DX005 (ip), vehicle: Klucel (hydroxypropylcellulose) (HPC)); 100 % of control under setting [1]; 89 % of control under setting [2]; 89 % of control under setting [3].

As to `O=C(NCCCCCCCCNC(=O)C12CC3CC(CC(C3)C1)C2)C12CC3CC(CC(C3)C1)C2`, the T/C is 86 % of control under setting [7], 86 % of control under setting [8] and 96 % of control under setting [9].

In the case of `CC(C)(C)[Si](OC(=O)CCCc1ccc(N(CCCl)CCCl)cc1)(c1ccccc1)c1ccccc1`, the T/C by setting is: (dose: 25.0 mg/kg/injection, schedule: Q01DX005 (ip), vehicle: saline with Tween-80) 123 % of control; under setting [7], 155 % of control and 175 % of control; under setting [8], 255 % of control.

With `CCOC(CNc1c[nH]c(=O)[nH]c1=O)OCC`, the T/C under setting [4] was 100 % of control, the T/C under setting [5] was 100 % of control, the T/C under setting [6] is 103 % of control and the T/C under setting [10] is 100 % of control.

Regarding `O=C(O)CCC1(C(=O)O)NCCc2c1[nH]c1ccccc21` (configuration not stated), the T/C is, setting by setting: (dose: 25.0 mg/kg/injection, schedule: Q01DX009 (ip), vehicle: suspension in saline) 95 % of control; (dose: 50.0 mg/kg/injection, schedule: Q01DX009 (ip), vehicle: suspension in saline) 99 % of control; (dose: 100.0 mg/kg/injection, schedule: Q01DX009 (ip), vehicle: suspension in saline) 98 % of control.

Consider `Cn1c(N)c(N=Nc2ccccc2Cl)c(=O)n(C)c1=O`, for which the T/C is 104 % of control under setting [4], 99 % of control under setting [5] and 95 % of control under setting [6].

Turning to `COc1ccc(/C=C2\SC(=O)N(C)C2=O)cc1OC`, the T/C under setting [1] was 88 % of control and the T/C under setting [2] was 89 % of control.
